#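 All cell lines were grown in 96-well plates and treated with compound for 48 hours. GI50 marks 50% less growth. TGI: concentration producing complete growth inhibition.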
# Tests used:
# Assay in all cases: NCI-60 cell line screen, 48 h
# OVCAR-3 ovarian = system: OVCAR-3 ovarian
# UACC-257 melanoma = system: UACC-257 melanoma
# SF-539 CNS = system: SF-539 CNS
# RXF-631 renal = system: RXF-631 renal
# SK-OV-3 ovarian = system: SK-OV-3 ovarian
# RPMI-8226 leukemia = system: RPMI-8226 leukemia
# OVCAR-4 ovarian = system: OVCAR-4 ovarian
# EKVX NSCLC = system: EKVX NSCLC
# XF 498 CNS = system: XF 498 CNS
# DMS 114 small cell lung = system: DMS 114 small cell lung
# K-562 leukemia = system: K-562 leukemia
# DLD-1 colon = system: DLD-1 colon
# NCI-H522 lung = system: NCI-H522 lung
# SN12C renal = system: SN12C renal
# HOP-92 NSCLC = system: HOP-92 NSCLC
# M14 melanoma = system: M14 melanoma
# KM12 colon = system: KM12 colon
# SK-MEL-2 melanoma = system: SK-MEL-2 melanoma
# HL-60(TB) leukemia = system: HL-60(TB) leukemia
# HCT-15 colon = system: HCT-15 colon
# TK-10 renal = system: TK-10 renal
# NCI-H23 lung = system: NCI-H23 lung
# SK-MEL-28 melanoma = system: SK-MEL-28 melanoma
# HT29 colon = system: HT29 colon
# OVCAR-5 ovarian = system: OVCAR-5 ovarian
# SR leukemia = system: SR leukemia
# RXF 393 renal = system: RXF 393 renal
# UO-31 renal = system: UO-31 renal
# DMS 273 small cell lung = system: DMS 273 small cell lung
compound,measurement,setting,value
CCC[CH2][Sn]1([CH2]CCC)[O]CC(CN2CCCCC2)[O]1 (stereo not drawn),GI50,OVCAR-3 ovarian,271 nM
same,TGI,OVCAR-3 ovarian,821 nM
same,GI50,UACC-257 melanoma,309 nM
same,TGI,UACC-257 melanoma,1050 nM
same,GI50,SF-539 CNS,391 nM
same,TGI,SF-539 CNS,1500 nM
same,GI50,RXF-631 renal,124 nM
same,TGI,RXF-631 renal,248 nM
same,GI50,SK-OV-3 ovarian,1300 nM
same,TGI,SK-OV-3 ovarian,2810 nM
same,GI50,RPMI-8226 leukemia,136 nM
same,TGI,RPMI-8226 leukemia,484 nM
same,GI50,OVCAR-4 ovarian,226 nM
same,TGI,OVCAR-4 ovarian,1430 nM
same,GI50,EKVX NSCLC,284 nM
same,TGI,EKVX NSCLC,1920 nM
same,GI50,XF 498 CNS,121 nM
same,TGI,XF 498 CNS,264 nM
same,GI50,DMS 114 small cell lung,156 nM
same,TGI,DMS 114 small cell lung,654 nM
same,GI50,K-562 leukemia,109 nM
same,TGI,K-562 leukemia,744 nM
same,GI50,DLD-1 colon,394 nM
same,TGI,DLD-1 colon,1850 nM
same,GI50,NCI-H522 lung,48.7 nM
same,TGI,NCI-H522 lung,176 nM
same,GI50,SN12C renal,356 nM
same,TGI,SN12C renal,1430 nM
same,GI50,HOP-92 NSCLC,193 nM
same,TGI,HOP-92 NSCLC,885 nM
same,GI50,M14 melanoma,336 nM
same,TGI,M14 melanoma,1330 nM
same,GI50,KM12 colon,634 nM
same,TGI,KM12 colon,2100 nM
same,GI50,SK-MEL-2 melanoma,185 nM
same,TGI,SK-MEL-2 melanoma,422 nM
same,GI50,HL-60(TB) leukemia,68.3 nM
same,TGI,HL-60(TB) leukemia,337 nM
same,GI50,HCT-15 colon,460 nM
same,TGI,HCT-15 colon,1670 nM
same,GI50,TK-10 renal,242 nM
same,TGI,TK-10 renal,897 nM
same,GI50,NCI-H23 lung,137 nM
same,TGI,NCI-H23 lung,343 nM
same,GI50,SK-MEL-28 melanoma,685 nM
same,TGI,SK-MEL-28 melanoma,1930 nM
same,GI50,HT29 colon,569 nM
same,TGI,HT29 colon,1880 nM
same,GI50,OVCAR-5 ovarian,1530 nM
same,TGI,OVCAR-5 ovarian,2860 nM
same,GI50,SR leukemia,199 nM
same,TGI,SR leukemia,619 nM
same,GI50,RXF 393 renal,299 nM
same,TGI,RXF 393 renal,542 nM
same,GI50,UO-31 renal,954 nM
same,TGI,UO-31 renal,2140 nM
same,GI50,DMS 273 small cell lung,271 nM
same,TGI,DMS 273 small cell lung,1250 nM

# Source: PubChem BioAssay (NCI)
